# Test results published in US11421025B2, “Treatment of IL-17A diseases” (OSAKA UNIVERSITY, priority 2013, dated 2022).
# Ends that are not written are not given here.
# Experiments:
# Format in all cases: in vivo
# [1] = test system: human IL-17A epitope (BSA conjugate); assay: Antibody titer by ELISA after human IL-17A epitope vaccines in BALB/c mouse; details: 6 weeks from the first administration, 3 times at 2-week intervals (FIG. 18, 20, 21)
# Protocol: Production of plate: Mouse IL-17A1 epitope+BSA conjugate and mouse IL-17A2 epitope+BSA conjugate were dispensed to a 96 well plate at a concentration of 10 μg/ml, and stood at 4° C. overnight. Recombinant mouse IL-17A was dispensed to a 96 well plate at a concentration of 0.25 μg/ml and stood at 4° C. overnight.
# The aforementioned plate was washed once with PBS (200 μl), and blocked with 5% skim milk in PBS for 2 hr. The primary antibody (mouse antiserum) was serially diluted with 5% skim milk in PBS, applied by 50 μl to a 96 well plate, and incubated at 4° C. overnight.
# The aforementioned plate was washed 7 times with PBS-T (0.05% Tween) (200 μl), the secondary antibody (anti-mouse IgG Ab-HRP-labeled) was diluted 1/1000 (5% skim milk), added by 50 μl, and incubated at ambient temperature for 3 hr. The plate was washed 3 times with PBS-T (0.05% Tween) (200 μl), TMB solution (50 μl) was added, shaded and incubated at ambient temperature for 30 min. 0.5N H2SO4 (50 μl) was added to discontinue the reaction and absorbance was measured at 450 nm.
# (§1) A vaccine containing a peptide consisting of the following human IL-17A1 epitope (KLH conjugated) corresponding to mouse IL-17A1 epitope (RPSDYLNR (SEQ ID NO: 5)) was produced, and intradermally administered to BALB/c mouse 3 times at 2-week intervals. The serum antibody titer was measured at 6 weeks from the first administration according to the method described in Example 1.
# In addition, a vaccine containing a peptide consisting of two kinds of epitopes (human IL-17A2 epitope, human IL-17A3 epitope) of the following human IL-17A (KLH conjugated) was produced, and intradermally administered to BALB/c mouse 3 times at 2-week intervals. The serum antibody titer was measured at 6 weeks from the first administration according to the method described in Example 1.
# Furthermore, a vaccine containing a peptide consisting of the following human IL-17A4, which is a partial sequence of human IL-17A1 epitope (KLH conjugated), was produced. […]
# [2] = biological target: T1, mouse IL-17A1 epitope (BSA conjugate) (Mus musculus, UniProt Q62386); assay: ELISA intersection reactivity of antiserum with mouse IL-17A1 epitope; details: serum of BALB/c mouse immunized with human epitope vaccine (FIG. 19A)
# T1 construct: BSA-IL-17A1 (RPSDYLNR) conjugate (No5 BSA conjugate)
# Protocol: The primary antibody (mouse antiserum) was diluted 10-fold, and then serially diluted by 5-fold and used. […]
# as §1
# [3] = test system: DBA/1 mouse, arthritis caused by Type II collagen; assay: Type II collagen arthritis model mouse, human IL-17A peptide vaccines; details: Experiment 8, KLH conjugated peptide vaccines (FIG. 22B)
# Protocol: A vaccine containing a peptide consisting of human IL-17A1 epitope, human IL-17A2 epitope or human IL-17A4 epitope was administered to femoral muscle of each of the following 6-week-old male mice (KLH conjugated) 3 times at 2-week intervals (120 μg/60 μl×1 site/administration). Type II collagen and CFA (complete Freund's adjuvant) were administered at 28 days from the first vaccine administration, and Type II collagen and IFA (incomplete Freund's adjuvant) were administered at 42 days from the first vaccine administration, to induce arthritis. Thereafter, the level of arthritis was observed 3 times per week and scored.
# H17 (human IL-17A1 epitope) group: 3 mice
# AF4 (human IL-17A4 epitope) group: 3 mice
# AF5 (human IL-17A2 epitope) group: 3 mice
Substance,serum antibody titer [1],intersection reactivity of serum with mouse IL-17A1 epitope [2],clinical score of arthritis [3]
"human IL-17A1 epitope: vaccine containing a peptide consisting of human IL-17A1 epitope RSSDYYNR (SEQ ID NO: 1), KLH conjugated (also: KLH conjugated; listed as Homo sapiens)",increased,showed intersection reactivity,suppressive effect on the onset and progression of arthritis
"human IL-17A2 epitope: vaccine containing a peptide consisting of human IL-17A2 epitope ADGNVDYHMNSVPIQQE (SEQ ID NO: 8), KLH conjugated (also: KLH conjugated; listed as Homo sapiens)",increased,–,suppressive effect on the onset and progression of arthritis
"human IL-17A4 epitope: vaccine containing a peptide consisting of human IL-17A4 epitope SDYYN (SEQ ID NO: 11), KLH conjugated (also: KLH conjugated; listed as Homo sapiens)",increased,–,suppressive effect on the onset and progression of arthritis
